Structures are written as SMILES.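 Each compound was tested at five concentrations against cells in 96-well plates for 48 hours. Here, GI50 denotes the concentration required for 50% inhibition of growth. The concentration for full growth arrest is given as TGI.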

Experimental findings from PubChem BioAssay (NCI) are described below.

Some test systems named below: T-47D breast; NCI-H460 lung; U251 CNS; EKVX NSCLC; NCI-H23 lung; HCC-2998 colon; SK-MEL-2 melanoma; RXF 393 renal; SW-620 colon; LOX IMVI melanoma.
Common to all, as to assay: NCI anticancer screen, dose series, 48 h

Regarding `N#CSCC1CC(O)(c2ccccc2)C(c2ccccc2)C(c2ccc(F)cc2)O1` (centres undefined), the GI50 in the test on T-47D breast was 3.17 µM; in the test with NCI-H460 lung, 4.53 µM; in the test with U251 CNS, 3.66 µM; in the test with EKVX NSCLC, 2.46 µM; with NCI-H23 lung it was 3.21 µM; in the test on HCC-2998 colon it was 10.7 µM. In addition, the GI50 in the test with SK-MEL-2 melanoma was 2.69 µM; with RXF 393 renal, 2.22 µM; in the test with SW-620 colon it was 3.02 µM; with LOX IMVI melanoma, 1.64 µM. Besides, the TGI with T-47D breast was > 37.3 µM; with NCI-H460 lung, 18.1 µM; with U251 CNS, 15.1 µM; in the test with EKVX NSCLC, 7.58 µM; in the test on NCI-H23 lung, 11.1 µM; in the test with HCC-2998 colon, 23 µM. In addition, the TGI in the test on SK-MEL-2 melanoma came out at 7.78 µM; in the test on RXF 393 renal, 4.4 µM; in the test with SW-620 colon, 10 µM; with LOX IMVI melanoma it was 3.18 µM.

For `O=C(Nc1ccncc1)C(=O)c1cn(S(=O)(=O)c2ccccc2F)c2ccccc12`, the GI50 in the test on T-47D breast is 2.53 µM; with NCI-H460 lung it was 6.75 µM; with U251 CNS, 1.89 µM; in the test with EKVX NSCLC it was 3.72 µM; in the test on NCI-H23 lung, 0.965 µM; in the test on HCC-2998 colon, 5.36 µM. The figures for the GI50 in the test with SK-MEL-2 melanoma, with RXF 393 renal and in the test with SW-620 colon were 5.2 µM, 2.44 µM and 1.44 µM, respectively. Besides, the TGI in the test with T-47D breast is > 87.1 µM; with NCI-H460 lung, > 100 µM; in the test on U251 CNS, 34.3 µM; in the test on EKVX NSCLC it was > 100 µM; in the test with NCI-H23 lung it was > 34.8 µM; with HCC-2998 colon it was > 100 µM. In addition, the TGI with SK-MEL-2 melanoma is > 57.8 µM; with RXF 393 renal, 9.18 µM; in the test with SW-620 colon, > 100 µM; in the test with LOX IMVI melanoma, > 100 µM.

`Cn1c2ccccc2c2nnc(N/N=C/c3ccccn3)nc21`: the GI50 in the test with T-47D breast was 0.392 µM; in the test on NCI-H460 lung, 0.346 µM; in the test on U251 CNS, 0.357 µM; in the test on EKVX NSCLC, 0.293 µM; in the test on NCI-H23 lung it was 0.382 µM; in the test with HCC-2998 colon, 0.529 µM. The GI50 in the test on SK-MEL-2 melanoma is 0.953 µM; with RXF 393 renal, 2.8 µM; with SW-620 colon, 0.509 µM; in the test on LOX IMVI melanoma it was 0.331 µM. The TGI with T-47D breast is 10.8 µM; in the test on NCI-H460 lung it was 5.69 µM; in the test with U251 CNS, 14 µM; with EKVX NSCLC, > 32 µM; in the test with NCI-H23 lung it was > 22.6 µM; with HCC-2998 colon, > 63.8 µM. The TGI with SK-MEL-2 melanoma was 16.9 µM; with RXF 393 renal, > 42.3 µM; in the test with SW-620 colon it was > 82.1 µM; in the test on LOX IMVI melanoma, 3.33 µM.

Turning to `C=C1C(=O)O[C@@H]2C[C@@H](C)[C@@H]3[C@@H](OC4OC(COC(C)=O)C(O)C(O)C4O)CC(=O)[C@@]3(C)C[C@H]12` (some centres undefined), the TGI turned out to be 8.89 µM in the test on T-47D breast; 28.7 µM with NCI-H460 lung; 19.7 µM in the test with U251 CNS; 7.6 µM in the test with EKVX NSCLC; 25.7 µM in the test with NCI-H23 lung; 3.14 µM in the test with HCC-2998 colon. The TGI turned out to be 20.7 µM with SK-MEL-2 melanoma, 4.21 µM with RXF 393 renal, 1.61 µM with SW-620 colon and 1.78 µM in the test on LOX IMVI melanoma.

With `CCOc1cc2ncc(C#N)c(Nc3ccc(F)c(Cl)c3)c2cc1NC(=O)/C=C/CN(C)C`, the GI50 with T-47D breast was 0.108 µM; in the test with NCI-H460 lung it was 0.655 µM; with U251 CNS, 0.625 µM; in the test with EKVX NSCLC it was 0.0187 µM; with NCI-H23 lung, 1.32 µM; in the test on HCC-2998 colon, 1.13 µM. Also, the GI50 in the test on SK-MEL-2 melanoma was 0.349 µM; in the test on RXF 393 renal it was 0.255 µM; in the test with SW-620 colon, 0.485 µM; in the test on LOX IMVI melanoma, 0.761 µM. The TGI with T-47D breast was > 3.37 µM; in the test on NCI-H460 lung, 4.26 µM; in the test with U251 CNS, > 4.89 µM; with EKVX NSCLC, > 6.51 µM; in the test on NCI-H23 lung it was > 7.42 µM; in the test on HCC-2998 colon, > 10 µM. Besides, the TGI in the test on SK-MEL-2 melanoma is > 3.21 µM; with RXF 393 renal it was 3.46 µM; in the test with SW-620 colon, 3.23 µM; with LOX IMVI melanoma it was 2.14 µM.
